Assay results reported in patent US20120149900A1, “FLUORINE CONTAINING COMPOUNDS AND METHODS OF USE THEREOF” (priority 2009, published 2012).
“Also recorded” adds a separate entry of the source.

Tests used:
human mu (MOP) receptor = biological target: T1, human mu (MOP) receptor (Homo sapiens, UniProt P35372); assay: Receptor binding assay, μ (MOP) (h) (agonist radioligand)
T1 construct: Cerep
Excerpt: (§1) Receptor binding assays (Table 1 and FIGS. 1-4)

kappa (KOP) receptor = biological target: T2, kappa (KOP) receptor (Rattus norvegicus, UniProt P34975); assay: Receptor binding assay, κ (KOP) (agonist radioligand)
T2 construct: Cerep
T2 sequence (P34975 whole entry): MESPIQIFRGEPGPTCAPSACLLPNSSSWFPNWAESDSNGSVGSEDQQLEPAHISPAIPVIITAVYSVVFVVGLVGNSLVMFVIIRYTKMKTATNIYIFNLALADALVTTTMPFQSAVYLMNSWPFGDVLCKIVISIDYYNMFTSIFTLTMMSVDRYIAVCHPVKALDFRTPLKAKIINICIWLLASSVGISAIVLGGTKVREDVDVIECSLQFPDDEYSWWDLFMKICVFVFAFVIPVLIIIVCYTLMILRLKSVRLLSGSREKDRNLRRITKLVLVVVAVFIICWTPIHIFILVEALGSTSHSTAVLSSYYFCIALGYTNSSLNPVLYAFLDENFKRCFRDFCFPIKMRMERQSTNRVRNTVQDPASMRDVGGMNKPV
Excerpt: as §1

kappa opioid receptor = kappa opioid receptor (Homo sapiens, UniProt P41145); assay: Cellular functional assay, kappa opioid receptor; assay type: cell-based; conditions: EC50 values were not determined
Chain of kappa opioid receptor (P41145 whole entry): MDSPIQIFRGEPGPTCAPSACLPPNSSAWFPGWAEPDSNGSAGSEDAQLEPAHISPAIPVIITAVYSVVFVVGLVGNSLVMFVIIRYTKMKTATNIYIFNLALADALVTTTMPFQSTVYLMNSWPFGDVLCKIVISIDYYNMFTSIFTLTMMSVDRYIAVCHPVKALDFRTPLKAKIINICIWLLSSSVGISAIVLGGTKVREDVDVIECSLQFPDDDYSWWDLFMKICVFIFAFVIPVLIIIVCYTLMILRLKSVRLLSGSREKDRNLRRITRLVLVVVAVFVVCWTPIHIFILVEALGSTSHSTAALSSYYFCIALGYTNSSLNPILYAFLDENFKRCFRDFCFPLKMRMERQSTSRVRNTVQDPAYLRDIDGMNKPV

[1] = In vivo pharmacokinetics and brain partition study; conditions: rats, fasted, single 1 mg/kg iv dose
Protocol: single 1 mg/kg iv dose administered in rats under fasted conditions plasma concentrations determined at 10 time points (2 mins -24 hrs) brain partition ratio determined at 1 and 4 hours

[2] = biological target: T3, human delta 2 (DOP) receptor (Homo sapiens, UniProt P41143); assay: Receptor binding assay, δ2 (DOP) (h) (agonist radioligand)
T3 construct: Cerep
T3 sequence (P41143 whole entry): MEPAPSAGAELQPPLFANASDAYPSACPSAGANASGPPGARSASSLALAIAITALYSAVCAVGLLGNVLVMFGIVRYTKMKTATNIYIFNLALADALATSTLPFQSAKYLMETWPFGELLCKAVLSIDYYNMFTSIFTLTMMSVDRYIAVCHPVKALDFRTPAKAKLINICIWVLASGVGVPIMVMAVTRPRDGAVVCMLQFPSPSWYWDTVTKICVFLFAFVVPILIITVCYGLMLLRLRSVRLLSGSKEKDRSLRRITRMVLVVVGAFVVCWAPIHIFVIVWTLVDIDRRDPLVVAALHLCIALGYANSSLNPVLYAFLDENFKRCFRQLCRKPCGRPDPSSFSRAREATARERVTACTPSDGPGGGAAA
Excerpt: as §1

[3] = biological target: opioid (non-selective) receptor; assay: Receptor binding assay, opioid (non-selective) (antagonist radioligand)
Excerpt: as §1

mu opioid receptor = mu opioid receptor (Homo sapiens, UniProt P35372); assay: Cellular functional assay, mu opioid receptor; assay type: cell-based; conditions: EC50 values were not determined
Chain of mu opioid receptor (P35372 whole entry): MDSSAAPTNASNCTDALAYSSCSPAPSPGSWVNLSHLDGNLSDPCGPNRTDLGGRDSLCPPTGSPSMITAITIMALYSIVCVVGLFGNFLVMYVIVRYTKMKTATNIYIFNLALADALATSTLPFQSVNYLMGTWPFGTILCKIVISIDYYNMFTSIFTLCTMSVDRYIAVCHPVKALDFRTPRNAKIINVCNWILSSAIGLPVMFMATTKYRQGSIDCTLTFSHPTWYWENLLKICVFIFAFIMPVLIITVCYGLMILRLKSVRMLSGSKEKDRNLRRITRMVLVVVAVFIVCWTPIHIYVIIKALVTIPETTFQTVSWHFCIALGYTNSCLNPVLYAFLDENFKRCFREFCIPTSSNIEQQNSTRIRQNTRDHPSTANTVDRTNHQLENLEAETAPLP

T1 sequence (P35372 whole entry): as above

For `CN1CC[C@]23c4c5ccc(F)c4O[C@H]2[C@@H](O)C=C[C@H]3[C@H]1C5` [F-morphine], the IC50 (human mu (MOP) receptor) was 370 nM, the Ki (human mu (MOP) receptor) was 150 nM and the nH (human mu (MOP) receptor; agonist radioligand) was 0.9. For the same compound, the IC50 (kappa (KOP) receptor) was 8500 nM, the Ki (kappa (KOP) receptor) was 5600 nM and the nH (kappa (KOP) receptor; agonist radioligand) was 1.1. For the same compound, the “function at kappa opioid receptor” value (kappa opioid receptor) was “agonist”, the Kp at 4 h ([1]; rat, brain/plasma, at 1 and 4 hours, read-out: brain/plasma ratio) was 2 to 3 and the “brain partition (in words)” value [1] was “partitions well into the brain”. For the same compound, the “Delta: binding” value [2] was “no observed binding; also recorded: no significant binding up to 10 uM”, the IC50 [2] was greater than 10000 nM and the IC50 [3] was 800 nM. For the same compound, the Ki [3] was 580 nM and the “function at mu opioid receptor” value (mu opioid receptor) was “agonist”.
